Measured values as given in patent US8222270B2 (Medicis Pharmaceutical Corporation, priority 2008, dated 2012).
Values joined by “and” are separate entries in the source; they are usually repeats but may differ in a detail not shown here. Identical values can stand only once.

Experiments:
[1] = Skin, eye and vaginal irritation studies; format: in vivo, rabbits
Text: The more severe dermal irritation seen in the rat is not predictive of human response.

[2] = Intravenous embryofetal development study; format: in vivo, rabbits
[3] = Repeat dose oral toxicity, 6 months; format: in vivo, rats; conditions: dosed daily for 6 months
Experimental: (§1) The adverse effects observed for the high doses (10-30 mg/kg) in repeat dose oral toxicity studies in rats and monkeys could be related to exaggerated pharmacological effects of excessive cytokines induction and lymphoid stimulation: reduced body weight gains, anaemia, serum protein changes and death. […] An oral no-adverse-effect level of 3 mg/kg/day was determined in both rats and monkeys dosed daily for 6 months.

[4] = tested on: interleukin-1 antagonist, interferon-α, 2′5′-oligoadenylate synthetase; assay: Biomarker response in 58 patients with AK treated 3 times per week for 16 weeks; format: in vivo, human; conditions: 16 weeks of dosing
[5] = design: species or system mice; conditions: CD-1, mouse, in vivo, 2 years
[6] = Experimental: A combined fertility and peri- and post-natal development study was conducted in rats.
[7] = Physicochemical properties of the drug substance (solubility, pKa)
Experimental: Physicochemical Properties: • Physical Form: Crystalline solid that varies in colour from white to off-white or buff. […] It can be made soluble to the extent of at least 100 mg/mL in methanol (as a salt) upon the addition of a few drops of hydrochloric or acetic acid.

[8] = Oral (gavage) carcinogenicity study, 24 months
[9] = Acute dermal toxicity under occlusion
[10] = Oral embryofetal development study; format: in vivo, rats
Experimental: Systemic embryofetal development studies were conducted in rats and rabbits.

[11] = Repeat dose dermal toxicity studies; format: in vivo, rats
Experimental: A dose-related decrease in body weight of male rats was also observed. No systemic toxicity was found at doses up to 5 mg/kg three days per week for 4 weeks or at doses up to 2.5 mg/kg three days per week for 16 weeks.

[12] = Repeat dose oral toxicity, 6 months; format: in vivo, monkeys; conditions: dosed daily for 6 months
Experimental: as §1

[13] = Stability of calibration standards in spent receiver fluid; format: physicochemical; conditions: vs T = 0

CC(C)Cn1cnc2c(N)nc3ccccc3c21 [imiquimod, 1-(2-methylpropyl)-1H-imidazo[4,5-c]quinolin-4-amine]
Vaginal tract irritation ([1]; rat or rabbit, every other day for 10 days at 10 and 50 mg/dose): not irritating
Eye irritation ([1]; unformulated at 100 mg/eye or formulated up to 5 mg/eye): mild or no eye irritation
Skin irritation ([1]; unformulated at 500 mg or formulated up to 250 mg per site): non-irritating
Teratogenicity ([2]; female, rabbit, in vivo): not teratogenic
Dose with no treatment related effects on embryofetal toxicity or teratogenicity ([2]; intravenous, gestational days 6-18): 2 mg/kg/day and 1 mg/kg/day
Oral no-adverse-effect level [3]: 3 mg/kg/day
2′5′-oligoadenylate synthetase, median concentration after multiple dosing vs single dose [4]: approximately 3 fold
Interferon-α, median concentration after multiple dosing vs single dose [4]: ≤ 3 fold
Interleukin-1 antagonist, median concentration after multiple dosing vs single dose [4]: < 2 fold
Carcinogenic effect, female mice ([5]; female): no evidence of a carcinogenic effect
Liver tumours, male mice at the highest dose vs unexposed controls ([5]; male): Liver tumours were increased
Exposure multiple at dose without teratogenicity ([6]; 3 mg/kg/day): 27 ×MRHD based on AUC comparisons
Dose up to which no impairment of reproduction was demonstrated ([6]; daily oral, throughout mating, gestation, parturition and lactation): 8 times recommended human dose on a mg/m^2 basis
Dose at which bent limb bones were noted in the F1 fetuses ([6]; in the absence of maternal toxicity): 6 mg/kg/day
Dose with no treatment related effects on teratogenicity ([6]; oral): 3 mg/kg/day
Solubility in fatty acids such as oleic acid and isostearic acid [7]: Soluble
pKa ([7]; UV spectroscopy and pH-solubility): ~7.5
Solubility in most common organic solvents and in aqueous systems ([7]; except at extremely low pH): Practically insoluble
solubility ([7]; methanol, upon addition of a few drops of hydrochloric or acetic acid, read-out: Solubility in methanol (as a salt)): ≥ 100 mg/mL
Exposure multiple, male and female rats ([8]; 3 mg/kg 7×/week): 29 ×MRHD
Exposure multiple, male rats ([8]; 4 mg/kg 2×/week): 45 ×MRHD
Exposure multiple, female rats ([8]; 6 mg/kg 2×/week): 57 ×MRHD based on AUC comparisons
Highest dose tested without treatment related tumors, female rats ([8]; 2×/week, 24 months): 6 mg/kg
Highest dose tested without treatment related tumors, male rats ([8]; 2×/week, 24 months): 4 mg/kg
Highest dose tested without treatment related tumors, male and female rats ([8]; 7×/week, 24 months): 3 mg/kg
Carcinogenic effect, male and female rats ([8]; two-year bioassay, up to 3 mg/kg orally per day): no evidence of a carcinogenic effect
Dermal lethal dose ([9]; rabbit, in vivo): greater than 5000 mg/kg
LD50 ([9]; rabbit, in vivo, topical, 5000 mg/kg): > 5000 mg/kg
Acute dermal toxicity ([9]; unformulated, under occlusion, 5000 mg/kg): did not reveal any toxic effects
Exposure multiple at dose with fetal effects ([10]; female, rat, in vivo): 427 ×MRHD based on AUC comparisons
Exposure multiple at no-effect dose ([10]; female, rat, in vivo): 83 ×MRBD based on AUC comparisons
Teratogenicity ([10]; female, rat, in vivo): not teratogenic
High maternally toxic dose with reduced pup weights and delayed ossification ([10]; female, rat, in vivo, 20 mg/kg/day): 28 times human dose on a mg/m^2 basis
Dose at which fetal effects were noted (in the presence of maternal toxicity) ([10]; oral, gestational days 6-15): 20 mg/kg/day
Dose with no treatment related effects on embryofetal toxicity or teratogenicity ([10]; oral, gestational days 6-15): 5 mg/kg/day
Dose up to which no systemic toxicity was found ([11]; three days per week for 4 weeks): 5 mg/kg
Dose up to which no systemic toxicity was found ([11]; three days per week for 16 weeks): 2.5 mg/kg
Oral no-adverse-effect level [12]: 3 mg/kg/day
48 h % recovered in Spent receiver fluid ([13]; Standard 5.275 μg/ml, Epidermal sheet + placebo, 37° C.): 86.828%
48 h % recovered in Spent receiver fluid ([13]; Standard 5.275 μg/ml, Epidermal sheet + placebo, Fridge): 88.881%
48 h % recovered in Spent receiver fluid ([13]; Standard 5.275 μg/ml, Epidermal sheet + placebo, RT): 86.540%
48 h % recovered in Spent receiver fluid ([13]; Standard 5.275 μg/ml, Epidermal sheet, 37° C.): 85.995%
48 h % recovered in Spent receiver fluid ([13]; Standard 5.275 μg/ml, Epidermal sheet, Fridge): 88.938%
48 h % recovered in Spent receiver fluid ([13]; Standard 5.275 μg/ml, Epidermal sheet, RT): 91.447%
48 h % recovered in Spent receiver fluid ([13]; Standard 5.275 μg/ml, Full thickness + placebo, 37° C.): 86.134%
48 h % recovered in Spent receiver fluid ([13]; Standard 5.275 μg/ml, Full thickness + placebo, Fridge): 90.260%
48 h % recovered in Spent receiver fluid ([13]; Standard 5.275 μg/ml, Full thickness + placebo, RT): 87.973%
48 h % recovered in Spent receiver fluid ([13]; Standard 5.275 μg/ml, Full thickness, 37° C.): 90.611%
48 h % recovered in Spent receiver fluid ([13]; Standard 5.275 μg/ml, Full thickness, Fridge): 94.586%
48 h % recovered in Spent receiver fluid ([13]; Standard 5.275 μg/ml, Full thickness, RT): 95.232%
48 h % recovered in Spent receiver fluid ([13]; Standard 42.2 μg/ml, Epidermal sheet + placebo, 37° C.): 95.095%
48 h % recovered in Spent receiver fluid ([13]; Standard 42.2 μg/ml, Epidermal sheet + placebo, Fridge): 93.077%
48 h % recovered in Spent receiver fluid ([13]; Standard 42.2 μg/ml, Epidermal sheet + placebo, RT): 92.904%
48 h % recovered in Spent receiver fluid ([13]; Standard 42.2 μg/ml, Epidermal sheet, 37° C.): 89.641%
48 h % recovered in Spent receiver fluid ([13]; Standard 42.2 μg/ml, Epidermal sheet, Fridge): 85.716%
48 h % recovered in Spent receiver fluid ([13]; Standard 42.2 μg/ml, Epidermal sheet, RT): 86.340%
